{
  "source": "paper PMC6753678",
  "about": "“Fueling Open Innovation for Malaria Transmission-Blocking Drugs: Hundreds of Molecules Targeting Early Parasite Mosquito Stages” (Frontiers in Microbiology, 2019)",
  "key": {"[1]": {"test_system": "P. falciparum female gametocytes", "parameters": "method as in Miguel-Blanco et al 2017", "settings": "TCAMS library screen; ref Miguel-Blanco et al 2017; read-out: Pf FGAA IC50; cited from earlier work"}, "[2]": {"test_system": "HepG2 cells", "settings": "HepG2 value reported with Pf FGAA screen; ref Miguel-Blanco et al 2017; cited from earlier work"}, "[3]": {"test_system": "P. falciparum female gametocytes", "test": "P. falciparum female gametogenesis assay (Pf FGAA)", "settings": "1: YES; 0: NO"}},
  "data": [
    {"smiles": "COc1ccccc1C1CCN(C2CCC(NC(=O)c3ccc4[nH]c(-c5ccc(C)cc5)nc4c3)CC2)CC1", "note": "(stereo not drawn) [TCMDC-133556]", "values": [
      {"measurement": "IC50", "setting": "[1]", "result": 2490, "unit": "nM"},
      {"measurement": "HepG2 cytoxicity (Pf FGAA screen)", "setting": "[2]", "result": 3.99, "unit": "µM"},
      {"measurement": "Is compound selective in assay? Pf FGAA active?", "setting": "[3]", "result": "0 (0: NO)"}
    ]},
    {"smiles": "CN1CCC(N2CCN(Cc3cccc(-c4ccc(-c5nc6cc(C(F)(F)F)ccc6[nH]5)cc4)c3)CC2)CC1.O=C(O)C(F)(F)F", "note": "[TCMDC-133842]", "values": [
      {"measurement": "IC50", "setting": "[1]", "result": 1090, "unit": "nM"},
      {"measurement": "HepG2 cytoxicity (Pf FGAA screen)", "setting": "[2]", "result": 2.44, "unit": "µM"},
      {"measurement": "Is compound selective in assay? Pf FGAA active?", "setting": "[3]", "result": "0 (0: NO)"}
    ]},
    {"smiles": "CN1CCCC(CN2CCN(Cc3cccc(-c4ccc(-c5nc6cc(C(F)(F)F)ccc6[nH]5)cc4)c3)CC2)C1.O=C(O)C(F)(F)F", "note": "(stereo not drawn) [TCMDC-133882]", "values": [
      {"measurement": "IC50", "setting": "[1]", "result": 1300, "unit": "nM"},
      {"measurement": "HepG2 cytoxicity (Pf FGAA screen)", "setting": "[2]", "result": 4.07, "unit": "µM"},
      {"measurement": "Is compound selective in assay? Pf FGAA active?", "setting": "[3]", "result": "0 (0: NO)"}
    ]},
    {"smiles": "O=C(O)C(F)(F)F.c1cc(CN2CCC(CCN3CCCCC3)CC2)cc(-c2csc(-c3nc4ccccc4[nH]3)c2)c1", "note": "[TCMDC-133919]", "values": [
      {"measurement": "IC50", "setting": "[1]", "result": 2110, "unit": "nM"},
      {"measurement": "HepG2 cytoxicity (Pf FGAA screen)", "setting": "[2]", "result": 6.04, "unit": "µM"},
      {"measurement": "Is compound selective in assay? Pf FGAA active?", "setting": "[3]", "result": "0 (0: NO)"}
    ]},
    {"smiles": "Cl.NC1CCN(CCc2ccc(NS(=O)(=O)c3ccc(-c4ccccc4)cc3)cc2)CC1", "note": "[TCMDC-134085]", "values": [
      {"measurement": "IC50", "setting": "[1]", "result": 750, "unit": "nM"},
      {"measurement": "HepG2 cytoxicity (Pf FGAA screen)", "setting": "[2]", "result": 7.17, "unit": "µM"},
      {"measurement": "Is compound selective in assay? Pf FGAA active?", "setting": "[3]", "result": "0 (0: NO)"}
    ]},
    {"smiles": "Cn1c(Nc2cc(C(C)(C)C)on2)nc2cc(Nc3ccnc(Nc4cccc(S(=O)(=O)N5CCOCC5)c4)n3)ccc21", "note": "[TCMDC-134098]", "values": [
      {"measurement": "IC50", "setting": "[1]", "result": 1190, "unit": "nM"},
      {"measurement": "HepG2 cytoxicity (Pf FGAA screen)", "setting": "[2]", "result": 8.13, "unit": "µM"},
      {"measurement": "Is compound selective in assay? Pf FGAA active?", "setting": "[3]", "result": "0 (0: NO)"}
    ]},
    {"smiles": "Cc1ccc(C(C(=O)Nc2ccc(N3CCNCC3)c(Cl)c2)c2ccccc2)cc1", "note": "(stereo not drawn) [TCMDC-134292]", "values": [
      {"measurement": "IC50", "setting": "[1]", "result": 660, "unit": "nM"},
      {"measurement": "HepG2 cytoxicity (Pf FGAA screen)", "setting": "[2]", "result": 11.89, "unit": "µM"},
      {"measurement": "Is compound selective in assay? Pf FGAA active?", "setting": "[3]", "result": "1 (1: YES)"}
    ]},
    {"smiles": "CC(C)c1ccc(CN2CCC(CNC(=O)c3cc(-c4cccc(C(F)(F)F)c4)cs3)C2)cc1.O=C(O)C(F)(F)F", "note": "(stereo not drawn) [TCMDC-134435]", "values": [
      {"measurement": "IC50", "setting": "[1]", "result": 1300, "unit": "nM"},
      {"measurement": "HepG2 cytoxicity (Pf FGAA screen)", "setting": "[2]", "result": 5.13, "unit": "µM"},
      {"measurement": "Is compound selective in assay? Pf FGAA active?", "setting": "[3]", "result": "0 (0: NO)"}
    ]},
    {"smiles": "CC(C)c1ccc(CN2CCC(CNC(=O)c3cc(-c4ccccc4F)cs3)C2)cc1.O=C(O)C(F)(F)F", "note": "(stereo not drawn) [TCMDC-134436]", "values": [
      {"measurement": "IC50", "setting": "[1]", "result": 1080, "unit": "nM"},
      {"measurement": "HepG2 cytoxicity (Pf FGAA screen)", "setting": "[2]", "result": 9.14, "unit": "µM"},
      {"measurement": "Is compound selective in assay? Pf FGAA active?", "setting": "[3]", "result": "0 (0: NO)"}
    ]},
    {"smiles": "CC(C)c1ccc(CN2CCC(CNC(=O)c3cc(-c4cccc(Cl)c4)cs3)C2)cc1.O=C(O)C(F)(F)F", "note": "(stereo not drawn) [TCMDC-134438]", "values": [
      {"measurement": "IC50", "setting": "[1]", "result": 600, "unit": "nM"},
      {"measurement": "HepG2 cytoxicity (Pf FGAA screen)", "setting": "[2]", "result": 6.53, "unit": "µM"},
      {"measurement": "Is compound selective in assay? Pf FGAA active?", "setting": "[3]", "result": "1 (1: YES)"}
    ]},
    {"smiles": "COc1cccc(-c2csc(C(=O)NCC3CCN(Cc4ccc(C(C)C)cc4)C3)c2)c1.O=C(O)C(F)(F)F", "note": "(stereo not drawn) [TCMDC-134439]", "values": [
      {"measurement": "IC50", "setting": "[1]", "result": 1370, "unit": "nM"},
      {"measurement": "HepG2 cytoxicity (Pf FGAA screen)", "setting": "[2]", "result": 11.51, "unit": "µM"},
      {"measurement": "Is compound selective in assay? Pf FGAA active?", "setting": "[3]", "result": "0 (0: NO)"}
    ]},
    {"smiles": "CC(C)c1ccc(CN2CCC(CNC(=O)c3cc(-c4ccc(N(C)C)cc4)cs3)C2)cc1.O=C(O)C(F)(F)F", "note": "(stereo not drawn) [TCMDC-134440]", "values": [
      {"measurement": "IC50", "setting": "[1]", "result": 710, "unit": "nM"},
      {"measurement": "HepG2 cytoxicity (Pf FGAA screen)", "setting": "[2]", "result": 5.85, "unit": "µM"},
      {"measurement": "Is compound selective in assay? Pf FGAA active?", "setting": "[3]", "result": "0 (0: NO)"}
    ]},
    {"smiles": "CC(C)(C)c1ccc(CN2CCC(CNC(=O)c3cc(-c4cccc(F)c4)cs3)C2)cc1.O=C(O)C(F)(F)F", "note": "(stereo not drawn) [TCMDC-134444]", "values": [
      {"measurement": "IC50", "setting": "[1]", "result": 1320, "unit": "nM"},
      {"measurement": "HepG2 cytoxicity (Pf FGAA screen)", "setting": "[2]", "result": 6.61, "unit": "µM"},
      {"measurement": "Is compound selective in assay? Pf FGAA active?", "setting": "[3]", "result": "0 (0: NO)"}
    ]},
    {"smiles": "CCc1ccccc1-c1csc(C(=O)NCC2CCN(Cc3ccc(C(C)(C)C)cc3)C2)c1.O=C(O)C(F)(F)F", "note": "(stereo not drawn) [TCMDC-134448]", "values": [
      {"measurement": "IC50", "setting": "[1]", "result": 1200, "unit": "nM"},
      {"measurement": "HepG2 cytoxicity (Pf FGAA screen)", "setting": "[2]", "result": 7.67, "unit": "µM"},
      {"measurement": "Is compound selective in assay? Pf FGAA active?", "setting": "[3]", "result": "0 (0: NO)"}
    ]},
    {"smiles": "CN(C)c1ccc(-c2csc(C(=O)NCC3CCN(Cc4ccc(C(C)(C)C)cc4)C3)c2)cc1.O=C(O)C(F)(F)F", "note": "(stereo not drawn) [TCMDC-134449]", "values": [
      {"measurement": "IC50", "setting": "[1]", "result": 600, "unit": "nM"},
      {"measurement": "HepG2 cytoxicity (Pf FGAA screen)", "setting": "[2]", "result": 7.24, "unit": "µM"},
      {"measurement": "Is compound selective in assay? Pf FGAA active?", "setting": "[3]", "result": "1 (1: YES)"}
    ]},
    {"smiles": "O=C(NCC1CCN(Cc2cccc(C(F)(F)F)c2)C1)c1cc(-c2cccc(C(F)(F)F)c2)cs1.O=C(O)C(F)(F)F", "note": "(stereo not drawn) [TCMDC-134483]", "values": [
      {"measurement": "IC50", "setting": "[1]", "result": 1650, "unit": "nM"},
      {"measurement": "HepG2 cytoxicity (Pf FGAA screen)", "setting": "[2]", "result": 16.22, "unit": "µM"},
      {"measurement": "Is compound selective in assay? Pf FGAA active?", "setting": "[3]", "result": "0 (0: NO)"}
    ]},
    {"smiles": "O=C(NCC1CCN(Cc2cccc(C(F)(F)F)c2)C1)c1cc(-c2cccc(F)c2)cs1.O=C(O)C(F)(F)F", "note": "(stereo not drawn) [TCMDC-134484]", "values": [
      {"measurement": "IC50", "setting": "[1]", "result": 2260, "unit": "nM"},
      {"measurement": "HepG2 cytoxicity (Pf FGAA screen)", "setting": "[2]", "result": 18.87, "unit": "µM"},
      {"measurement": "Is compound selective in assay? Pf FGAA active?", "setting": "[3]", "result": "0 (0: NO)"}
    ]},
    {"smiles": "O=C(NCC1CCN(Cc2cccc(C(F)(F)F)c2)C1)c1cc(-c2cccc(Cl)c2)cs1.O=C(O)C(F)(F)F", "note": "(stereo not drawn) [TCMDC-134485]", "values": [
      {"measurement": "IC50", "setting": "[1]", "result": 890, "unit": "nM"},
      {"measurement": "HepG2 cytoxicity (Pf FGAA screen)", "setting": "[2]", "result": 16.03, "unit": "µM"},
      {"measurement": "Is compound selective in assay? Pf FGAA active?", "setting": "[3]", "result": "1 (1: YES)"}
    ]},
    {"smiles": "CN(C)c1ccc(-c2csc(C(=O)NCC3CCN(Cc4cccc(C(F)(F)F)c4)C3)c2)cc1.O=C(O)C(F)(F)F", "note": "(stereo not drawn) [TCMDC-134486]", "values": [
      {"measurement": "IC50", "setting": "[1]", "result": 1560, "unit": "nM"},
      {"measurement": "HepG2 cytoxicity (Pf FGAA screen)", "setting": "[2]", "result": 8.18, "unit": "µM"},
      {"measurement": "Is compound selective in assay? Pf FGAA active?", "setting": "[3]", "result": "0 (0: NO)"}
    ]},
    {"smiles": "N#Cc1ccc(-c2ccc(C(=O)NCC3CCN(CCN4CCC(c5ccc6c(c5OCC(N)=O)CCCC6)CC4)CC3)cc2)cc1", "note": "[TCMDC-134563]", "values": [
      {"measurement": "IC50", "setting": "[1]", "result": 1260, "unit": "nM"},
      {"measurement": "HepG2 cytoxicity (Pf FGAA screen)", "setting": "[2]", "result": 6.17, "unit": "µM"},
      {"measurement": "Is compound selective in assay? Pf FGAA active?", "setting": "[3]", "result": "0 (0: NO)"}
    ]},
    {"smiles": "NCCCCNc1cc(-c2ccnc(Nc3cccc(Cl)c3)n2)ccn1", "note": "[TCMDC-134683]", "values": [
      {"measurement": "IC50", "setting": "[1]", "result": 1460, "unit": "nM"},
      {"measurement": "HepG2 cytoxicity (Pf FGAA screen)", "setting": "[2]", "result": 0.67, "unit": "µM"},
      {"measurement": "Is compound selective in assay? Pf FGAA active?", "setting": "[3]", "result": "0 (0: NO)"}
    ]}
  ]
}
